The values below come from US6670363B1, “Azole compounds as therapeutic agents for fungal infections” (Ranbaxy Laboratories Limited, priority 2000, dated 2003).

Structures are written as SMILES. Values after ≈ are worked out from the molar mass of the structure shown. Where only a bound is given, the exact number is not on record here.

Holding throughout (assay type): cell-based
One experiment concerns Candida. Kind of experiment: In vitro MIC, NCCLS M27A, Candida species. Further details: MIC, Candida albicans 1.549 / MIC, Candida albicans Y-01-19 / MIC, C. krusei 766-1 / MIC, C. krusei Q. C / MIC, Candida tropicalis ATCC / MIC, C. glabrata 90030: unit not given beside the values; MIC, Candida albicans A 26 / MIC, C. parapsilosis Q. C.: unit not given here. As to conditions: for MIC, C. glabrata 90030: C. glabrata strain 90030; for MIC, C. krusei 766-1: C. krusei strain 766-1; for MIC, C. krusei Q. C: C. krusei strain Q. C; for MIC, C. parapsilosis Q. C.: C. parapsilosis strain Q. C.; for MIC, Candida albicans 1.549: Candida albicans strain 1.549; for MIC, Candida albicans A 26: Candida albicans strain A 26; for MIC, Candida albicans Y-01-19: Candida albicans strain Y-01-19.

In a further experiment the test system is Histoplasma capsulatum.
For the next experiment, the system named is A. fumigatus s 1008. As to the kind of experiment: In vitro MIC, NCCLS M38P broth method (RPMI 1640/MOPS pH7), Aspergillus fumigatus. The note with it: A. fumigatus strain 1008.
The next experiment relates to Cryptococcus neoformans. As to the kind of experiment: In vitro MIC, NCCLS M27A, Cryptococcus neoformans. Further details: MIC, C. neoformans I: unit not given beside the values; MIC, C. neoformans M 106: unit not given here. The note with it: for MIC, C. neoformans I: C. neoformans strain I; for MIC, C. neoformans M 106: C. neoformans strain M 106.

In the case of `C[C@@H](n1ncn(-c2ccc(N3CCN(c4ccc(Cl)c(Cl)c4)CC3)cc2)c1=O)[C@](O)(Cn1cncn1)c1ccc(F)cc1F` [Compound 7, 2-{[1R2R/1S2S]-2-(2,4-Difluorophenyl)-2-hydroxy-1-methyl-3-(1H-1,2,4-triazol-1-yl)propyl}-4-{4-[4-(3,4-dichlorophenyl)-1-piperzinyl]phenyl}-3-(2H,4H)-1,2,4-triazolone], in the experiment on Candida, the “MIC, C. glabrata 90030” value stood at 0.12; the “MIC, C. krusei 766-1” value came out at 0.25; the “MIC, C. krusei Q. C” value was determined as 0.12; the “MIC, C. parapsilosis Q. C.” value was below 0.03. Further, in the experiment on Candida, the “MIC, Candida albicans 1.549” value stood at 0.25; the “MIC, Candida albicans A 26” value is reported as below 0.03; the “MIC, Candida albicans Y-01-19” value is 0.12; the “MIC, Candida tropicalis ATCC” value was below 0.03. Further, the MIC, H. capsulatum against Histoplasma capsulatum was found to be 0.12 µg/mL (≈ 0.187 µM). In addition, in the experiment with A. fumigatus s 1008, the “MIC, A. fumigatus 1008” value is recorded as 0.25. In addition, in the experiment with Cryptococcus neoformans, the “MIC, C. neoformans I” value is below 0.03 and the “MIC, C. neoformans M 106” value is on record as below 0.03.
Consider `C[C@@H](n1ncn(-c2ccc(N3CCN(c4ccc(Cl)c(Cl)c4)CC3)cc2)c1=O)[C@@](O)(Cn1cncn1)c1ccc(F)cc1F` [Compound 8, 2-{[1R2S/1S2R]-2-(2,4-Difluorophenyl)-2-hydroxy-1-methyl-3-(1H-1,2,4-triazol-1-yl)propyl}-4-{4-[4-(3,4-dichlorophenyl)-1-piperazinyl]phenyl}-3-(2H,4H)-1,2,4-triazolone], for which, in the experiment with Candida, the “MIC, C. glabrata 90030” value is above 16; the “MIC, C. krusei 766-1” value is reported as above 16; the “MIC, C. krusei Q. C” value is on record as above 16; the “MIC, C. parapsilosis Q. C.” value is reported as 1.00. Moreover, in the experiment with Candida, the “MIC, Candida albicans 1.549” value is on record as above 16; the “MIC, Candida albicans A 26” value was below 0.03; the “MIC, Candida albicans Y-01-19” value is above 16; the “MIC, Candida tropicalis ATCC” value is above 16. Also, the MIC, H. capsulatum against Histoplasma capsulatum was 2 µg/mL (≈ 3.12 µM). Besides, the “MIC, A. fumigatus 1008” value in the experiment with A. fumigatus s 1008 is reported as above 16. Besides, in the experiment with Cryptococcus neoformans, the “MIC, C. neoformans I” value is 16.00 and the “MIC, C. neoformans M 106” value is 16.00.
As for `C[C@@H](n1ncn(-c2ccc(N3CCN(c4cccc(C(F)(F)F)c4)CC3)cc2)c1=O)[C@](O)(Cn1cncn1)c1ccc(F)cc1F` [Compound 9, 2-{[1R2R/1S2S]-2-(2,4-Difluorophenyl)-2-hydroxy-1-methyl-3-(1H-1,2,4-triazol-1-yl)propyl}-4-{4-[4-(3-trifluoromethylphenyl)-1-piperazinyl]phenyl}-3-(2H,4H)-1,2,4-triazolone], in the experiment with Candida, the “MIC, C. glabrata 90030” value came to 0.25; the “MIC, C. krusei 766-1” value is 0.50; the “MIC, C. krusei Q. C” value worked out at 0.12; the “MIC, C. parapsilosis Q. C.” value is listed as below 0.03. Further, in the experiment on Candida, the “MIC, Candida albicans 1.549” value turned out to be 0.25; the “MIC, Candida albicans A 26” value was below 0.03; the “MIC, Candida albicans Y-01-19” value worked out at 0.25; the “MIC, Candida tropicalis ATCC” value is recorded as below 0.03. The compound further gave an MIC, H. capsulatum in the experiment on Histoplasma capsulatum of 0.06 µg/mL (≈ 0.0937 µM). In addition, in the experiment with A. fumigatus s 1008, the “MIC, A. fumigatus 1008” value is 0.50. Besides, in the experiment with Cryptococcus neoformans, the “MIC, C. neoformans I” value is below 0.03 and the “MIC, C. neoformans M 106” value was below 0.03.
On to `C[C@@H](n1ncn(-c2ccc(N3CCN(c4cccc(C(F)(F)F)c4)CC3)cc2)c1=O)[C@@](O)(Cn1cncn1)c1ccc(F)cc1F` [Compound 10, 2-{[1R2S/1S2R]-2-(2,4-Difluorophenyl)-2-hydroxy-1-methyl-3-(1H-1,2,4-triazol-1-yl)propyl}-4-{4-[4-(3-trifluoromethylphenyl)-1-piperazinyl]phenyl}-3-(2H,4H)-1,2,4-triazolone], for which, in the experiment with Candida, the “MIC, C. glabrata 90030” value turned out to be 0.50; the “MIC, C. krusei 766-1” value is on record as above 16; the “MIC, C. krusei Q. C” value worked out at 1.00; the “MIC, C. parapsilosis Q. C.” value is listed as below 0.03. In the experiment with Candida, the “MIC, Candida albicans 1.549” value is listed as 0.50; the “MIC, Candida albicans A 26” value is below 0.03; the “MIC, Candida albicans Y-01-19” value was 1.00; the “MIC, Candida tropicalis ATCC” value is listed as below 0.03. Also, in the experiment on Histoplasma capsulatum, the MIC, H. capsulatum was determined as 0.06 µg/mL (≈ 0.0937 µM). For the same compound, the “MIC, A. fumigatus 1008” value against A. fumigatus s 1008 is above 16. In the experiment with Cryptococcus neoformans, the “MIC, C. neoformans I” value is recorded as 0.06 and the “MIC, C. neoformans M 106” value is given as below 0.03.
Consider `C[C@@H](n1ncn(-c2ccc(N3CCN(c4ccc(F)cc4)CC3)cc2)c1=O)[C@](O)(Cn1cncn1)c1ccc(F)cc1F` [Compound 11, 2-{[1R2R/1S2S]-2-(2,4-Difluorophenyl)-2-hydroxy-1-methyl-3-(1H-1,2,4-triazol-1-yl)propyl}-4-{4-[4-(4-fluorophenyl)-1-piperazinyl]phenyl}-3-(2H,4H)-1,2,4-triazolone], for which, in the experiment on Candida, the “MIC, C. glabrata 90030” value was determined as 0.25; the “MIC, C. krusei 766-1” value was found to be 0.25; the “MIC, C. krusei Q. C” value was 0.12; the “MIC, C. parapsilosis Q. C.” value is below 0.03. Further, in the experiment on Candida, the “MIC, Candida albicans 1.549” value is listed as 0.06; the “MIC, Candida albicans A 26” value is below 0.03; the “MIC, Candida albicans Y-01-19” value is on record as 0.12; the “MIC, Candida tropicalis ATCC” value is below 0.03. In addition, the MIC, H. capsulatum against Histoplasma capsulatum was below 0.03 µg/mL. For the same compound, the “MIC, A. fumigatus 1008” value against A. fumigatus s 1008 is reported as 0.25. Moreover, in the experiment on Cryptococcus neoformans, the “MIC, C. neoformans I” value is given as below 0.03 and the “MIC, C. neoformans M 106” value is below 0.03.
With `C[C@@H](n1ncn(-c2ccc(N3CCN(c4ccc(F)cc4)CC3)cc2)c1=O)[C@@](O)(Cn1cncn1)c1ccc(F)cc1F` [Compound 12, 2-{[1R2S/1S2R]-2-(2,4-Difluorophenyl)-2-hydroxy-1-methyl-3-(1H-1,2,4-triazol-1-yl)propyl}-4-{4-[4-(4-fluorophenyl)-1-piperazinyl]phenyl}-3-(2H,4H)-1,2,4-triazolone], in the experiment with Candida, the “MIC, C. glabrata 90030” value came to 4.00; the “MIC, C. krusei 766-1” value is listed as above 16; the “MIC, C. krusei Q. C” value was determined as 8.00; the “MIC, C. parapsilosis Q. C.” value was 0.06. In the experiment on Candida, the “MIC, Candida albicans 1.549” value turned out to be 4.00; the “MIC, Candida albicans A 26” value is given as below 0.03; the “MIC, Candida albicans Y-01-19” value was 8.00; the “MIC, Candida tropicalis ATCC” value is below 0.03. Further, the MIC, H. capsulatum against Histoplasma capsulatum is below 0.03 µg/mL. Further, the “MIC, A. fumigatus 1008” value with A. fumigatus s 1008 is listed as above 16. Besides, in the experiment with Cryptococcus neoformans, the “MIC, C. neoformans I” value is reported as 0.12 and the “MIC, C. neoformans M 106” value turned out to be 0.25.
As for `COc1ccc(N2CCN(c3ccc(-n4cnn([C@H](C)[C@](O)(Cn5cncn5)c5ccc(F)cc5F)c4=O)cc3)CC2)cc1` [Compound 13, 2-{[1R2R/1S2S]-2-(2,4-Difluorophenyl)-2-hydroxy-1-methyl-3-(1H-1,2,4-triazol-1-yl)propyl}-4-{4-[4-(4-methoxyphenyl)-1-piperazinyl]phenyl}-3-(2H,4H)-1,2,4-triazolone], in the experiment on Candida, the “MIC, C. glabrata 90030” value amounted to 0.50; the “MIC, C. krusei 766-1” value worked out at 0.50; the “MIC, C. krusei Q. C” value amounted to 0.12; the “MIC, C. parapsilosis Q. C.” value is below 0.03. Further, in the experiment on Candida, the “MIC, Candida albicans 1.549” value stood at 0.12; the “MIC, Candida albicans A 26” value was below 0.03; the “MIC, Candida albicans Y-01-19” value is recorded as 0.25; the “MIC, Candida tropicalis ATCC” value was below 0.03. The compound further yielded an MIC, H. capsulatum against Histoplasma capsulatum of 0.06 µg/mL (≈ 0.0996 µM). Moreover, the “MIC, A. fumigatus 1008” value against A. fumigatus s 1008 worked out at 0.25. Moreover, in the experiment on Cryptococcus neoformans, the “MIC, C. neoformans I” value is on record as below 0.03 and the “MIC, C. neoformans M 106” value is on record as below 0.03.
